Laboratory results published in article PMC5991393, “Pharmacokinetic properties of a novel inosine analog, 4′-cyano-2′-deoxyinosine, after oral administration in rats” (PLoS ONE, 2018).
Entries after “also recorded” stand apart in the source; their conditions may differ.

Tests used:
[1] = Pharmacokinetic study of SK14-061a after oral and intravenous administration in rats; type: in vivo; settings: 1 mg/kg
Protocol: (§1) Rats were fasted for 12 h but with free access to water before dosing. Rats were orally (p.o.) administered a SK14-061a solution at a dose of 1 mg/kg. At stipulated times after the administration (15 min, 45 min, 90 min, 3, 4.5, 6 and 9 hr), venous blood samples were collected from tail vein using a heparinized syringe (0.25ml). The blood samples were centrifuged (3,000 rpm, 10 min) to obtain plasma. Urine samples were collected in a metabolic cage for 9 hr after the administration of the SK14-061a solution. After obtaining the last blood sample, all rats were sacrificed and kidneys and liver collected. To determine the time-dependent tissue distribution of SK14-061a, rats were sacrificed and organs (kidneys and liver) were collected at 1 and 3 hr after the oral administration of SK14-061a at a dose of 1 mg/kg. To calculate bioavailability, plasma concentrations of SK14-061a after intravenous administration (1 mg/kg) were also obtained at 3 min, 15 min, 30 min, 1, 3, 6 and 9 hr. Before the LC-MS analysis, plasma samples that were collected for pharmacokinetic studies were treated in the same manner as described in the "Validation assays" section. A portion of the liver and kidney tissues (about 500 mg) were homogenized in water (1 mL). The homogenized samples were subsequently ultracentrifuged at 100,000 g for 1 hr, and the supernatant collected. Urine samples were centrifuged (3,000 rpm, 10 min) and the supernatants were used in the analyses. All samples derived from organs and urine were processed using a Waters Oasis MCX 96 well plate in the same manner as was used for the plasma samples before the LC-MS analysis. All data are expressed as the mean ± S.D. Statistical analyses for multiple comparisons were determined by an analysis of variance (two-way ANOVA) using the Bonferroni correction for multiple comparisons. A probability value of p < 0.05 was considered to be significant. A non-compartment model was used for the pharmacokinetic analysis. Parameters were calculated using the program of a moment analysis developed by Tabata et al. Half-life (t1/2) were calculated from the elimination phase. Area under the concentration-time curve (AUC) were calculated using the following equations: AUC=∫0∞Cdt

[2] = Pharmacokinetic study of oral co-administration of SK14-061a and ETV in rats; type: in vivo; settings: rat, plasma, po, 1 mg/kg
Protocol: At stipulated times after the administration (15 min, 45 min, 90 min, 3, 6 and 9 hr), venous blood samples were collected by means of a heparinized syringe (0.25ml). The blood samples were centrifuged (3,000 rpm, 10 min) to obtain plasma. […] All data are expressed as the mean ± S.D. Statistical analyses for multiple comparisons were determined by an analysis of variance (two-way ANOVA) using the Bonferroni correction for multiple comparisons. A probability value of p < 0.05 was considered to be significant. A non-compartment model was used for the pharmacokinetic analysis. Parameters were calculated using the program of a moment analysis developed by Tabata et al. Half-life (t1/2) were calculated from the elimination phase. Area under the concentration-time curve (AUC) were calculated using the following equations: AUC=∫0∞Cdt

[3] = target: T1, Human serum albumin (HSA) (Homo sapiens, UniProt P02768); experiment: Protein binding by ultrafiltration, HSA; type: in vitro ADME; settings: 600 μM HSA, 500 ng/mL
T1 construct: purchased Sigma-Aldrich (Tokyo, Japan)
Protocol: (§2) Protein binding assays were performed following a previous reported procedure, with minor modifications. In short, pooled human plasma, 600 μM HSA and 45 μM AGP were spiked with an aqueous solution of SK14-061a to produce a final SK14-061a concentration of 500 ng/mL, respectively. The unbound drug fraction was determined by ultrafiltration. Ultrafiltration was carried out using an Amicon® Ultra-0.5 mL centrifugal filter unit with an Ultracel®-30 membrane (Merck Millipore Company, MA). Samples of 500 μL were centrifuged at 14,000 g for 10 min. The SK14-061a concentration were determined by LC-MS without the SPE method.

[4] = tested on: human α1-acid glycoprotein (AGP); experiment: Protein binding by ultrafiltration, AGP; type: in vitro ADME; settings: 45 μM AGP, 500 ng/mL
Protocol: as §2

[5] = Urinary excretion of unchanged SK14-061a after oral administration; type: in vivo, rats
Protocol: as §1, with “Urine samples were collected in a metabolic cage for 9 hr after the administration of the SK14-061a solution.” left out, “analysis.” for “analysis. All data are expressed as the mean ± S.D. Statistical analyses for multiple comparisons were determined by an analysis of variance (two-way ANOVA) using the Bonferroni correction for multiple comparisons. A probability value of p < 0.05 was considered to be significant. A non-compartment model was used for the pharmacokinetic analysis. Parameters were calculated using the program of a moment analysis developed by Tabata et al. Half-life (t1/2) were calculated from the elimination phase. Area under the concentration-time curve (AUC) were calculated using the following equations: AUC=∫0∞Cdt”

[6] = tested on: HIV-1MDR; set-up: method as in PMID 15200030; settings: clone with Ala62Val, Val75Leu, Phe77Leu, Phe116Tyr, Gln115Met; cited from earlier work
[7] = tested on: HIV-1M184V; set-up: method as in PMID 15200030; settings: lamivudine-resistant; cited from earlier work
[8] = rats, p.o., 1 mg/kg, 9 hr after oral administration

T1 sequence (P02768 25-609): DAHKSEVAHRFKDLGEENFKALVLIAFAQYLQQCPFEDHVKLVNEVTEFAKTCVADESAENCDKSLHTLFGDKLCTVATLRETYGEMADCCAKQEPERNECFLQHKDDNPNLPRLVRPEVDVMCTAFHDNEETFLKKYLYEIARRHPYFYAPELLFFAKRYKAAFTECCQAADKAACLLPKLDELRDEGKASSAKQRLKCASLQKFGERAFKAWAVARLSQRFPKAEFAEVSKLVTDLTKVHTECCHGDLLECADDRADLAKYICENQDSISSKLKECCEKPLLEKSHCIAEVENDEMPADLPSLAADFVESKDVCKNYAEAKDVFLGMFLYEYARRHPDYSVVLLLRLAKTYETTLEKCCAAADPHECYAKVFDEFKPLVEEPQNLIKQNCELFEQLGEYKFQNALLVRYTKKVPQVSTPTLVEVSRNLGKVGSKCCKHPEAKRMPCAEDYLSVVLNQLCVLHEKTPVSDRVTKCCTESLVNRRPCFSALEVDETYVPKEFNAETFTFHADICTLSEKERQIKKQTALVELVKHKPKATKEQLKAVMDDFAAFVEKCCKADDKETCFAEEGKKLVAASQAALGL

**Q.** What does the source list for N#C[C@]1(CO)O[C@@H](n2cnc3c(O)ncnc32)C[C@@H]1O [SK14-061a, 4′-cyano-2′-deoxyinosine]?
**A.** half-life ([1]; rat, plasma, iv, rats): 3.01 ± 1.48 h; AUC ([1]; rat, plasma, iv, rats, i.v., read-out: AUC): 475 ± 82.2 ng·h/mL; Cmax ([1]; rat, plasma, iv, rats): 431 ± 36.3 ng/mL; MRT ([1]; rat, plasma, iv, rats): 3.58 ± 1.86 h; clearance ([1]; rat, plasma, iv, rats): 34.7 mL/min/kg; bioavailability ([1]; rat, plasma, oral, rats, p.o. vs i.v., read-out: F (bioavailability)): ~65%; CL/F ([1]; rat, plasma, po): 55.3 mL/min/kg; Cmax ([1]; rat, plasma, po): 48.8 ± 11.8 ng/mL; MRT ([1]; rat, plasma, po): 5.47 ± 1.52 h; half-life ([1]; rat, plasma, po, rats, alone (ETV (-))): ~3.6 h; AUC ([1]; rat, plasma, po, rats, p.o., alone (ETV (-)), read-out: AUC): 308 ± 49.7 ng·h/mL; Tmax ([1]; rat, plasma, po, rats, p.o., alone (ETV (-)), read-out: tmax): 1.3 h; MAT (mean absorption time) ([1]; rats, p.o. vs i.v.): 1.89 h; AUC ([1]; rats, p.o., alone (ETV (-))): 308 ± 49.7 ng·h/mL; Tmax ([1]; rats, p.o., alone (ETV (-))): 1.29 ± 0.34 h; half-life [2]: 4.07 ± 2.2 h; AUC ([2]; read-out: AUC): 972 ± 185 ng·h/mL; CL/F ([2]; read-out: CL/F (converted)): 17.7 mL/min/kg; Cmax ([2]; read-out: Cmax): 165 ± 46.6 ng/mL; MRT ([2]; read-out: MRT): 3.14 ± 2.16 h; Tmax ([2]; read-out: tmax): 1.07 ± 0.4 h; binding rate to HSA [3]: about 14.7 ± 0.03%; binding rate to AGP [4]: about 22.1 ± 0.01%; SK14-061a accumulated in the urine as share of the administered dose ([5]; during 72 hr after oral administration, authors' other study): about 45%; dose excreted ([5]; rat, urine, po, rats, p.o., 1 mg/kg, 9 hr, taken together with bioavailability (approximately 65%), read-out: recovery of SK14-061a in urine taking bioavailability into account): ~30%; amount of unchanged SK14-061a accumulated in the urine [5, 8]: about 46 ± 17 μg; unchanged SK14-061a in urine as share of the administered dose [5, 8]: about 20%; activity against HIV-1MDR [6]: potent activity; activity against HIV-1M184V [7]: potent activity; also recorded: highly active
